Measured values as given in publication PMC8886574, “Synthesis, physicochemical characterization and neuroprotective evaluation of novel 1-hydroxypyrazin-2(1H)-one iron chelators in an in vitro cell model of Parkinson's disease” (Dalton Transactions (Cambridge, England : 2003), 2022).
Like-named read-outs stand apart in the source and are kept apart here. Values belong to the compound of their own block, whether it stands above or below them.

Experiments:
[1] = cited from earlier work
[2] = Trolox equivalent antioxidant capacity (TEAC) assay, ABTS radical cation decolorization; assay type: biochemical; settings: for time to complete reaction with ABTS radical cation: TEAC assay
Source text: 2,2′-Azinobis-(3-ethylbenzothiazoline)-6-sulfonic acid radical cation (ABTS˙^+) is a blue/green chromophore that absorbs at 745 nm and was produced through the reaction between ABTS and potassium persulfate. Addition of antioxidants to the radical cation reduces it to the non-absorbing ABTS to an extent and on a time-scale depending on its antioxidant activity, the concentration of the antioxidant and the duration of the reaction. […] The TEAC value for a given ligand at a given time point was obtained by dividing the corresponding slope of the ligand by the slope of Trolox (Table 3 and Fig. S21 ^†).
TEAC values were calculated according to an ABTS radical cation decolorization assay. 2,2′-Azinobis-(3-ethylbenzothiazoline-6-sulphonic acid diammonium salt (ABTS, 7 mM) was dissolved in water (10 mL) and exposed to potassium persulphate (2.45 mM). After a 16-hour incubation period (dark, room temperature), the resulting solution was diluted with HPLC-grade methanol such that the absorbance of the solution at 745 nm was around 0.7. ABTS˙^+ solution (2 mL) was loaded into a cuvette and the absorbance was recorded at 745 nm. 50 μL of various concentrations of the given ligand solution were then added, the cuvette was vigorously shaken and the absorbance was measured after 1, 3 and 6 minutes. Data were plotted such that for each time point a linear system of percentage of inhibition of ABTS˙^+versus concentration of ligand was obtained. The slope of each plot was normalised with respect to that of Trolox to give the Trolox equivalence value for each time point.

[3] = DPPH radical scavenging assay; assay type: biochemical
[4] = test system: SH-SY5Y neuroblastoma cells; design: method as in earlier work; settings: studied previously ref 27; cited from earlier work
[5] = design: method as in PMID 32078022; settings: cited from earlier work
[6] = cited from earlier work; remark: listed apart in the source
[7] = test system: SH-SY5Y neuroblastoma cells; test: Neuroprotection against 6-OHDA insult, MTT cell viability assay; assay type: cell-based, Human; settings: for neuroprotection against 6-OHDA (in words): 0–300 μM, pre-incubation 1 hour, 6-OHDA 24 hours; for % 6-OHDA Rescue (at 100 µM): 100 µM dose of the compound; for cell viability restored: human, 24 h
Protocol: We next evaluated the neuroprotective ability of these compounds when cells are exposed to 6-hydroxydopamine (6-OHDA), a neurotoxin that emulates various pathological aspects of PD in dopaminergic neurons, in both in vitro and in vivo disease models, including mitochondrial impairment and cell death.[26c,28,46] […] Cells were pre-treated with the compound of interest at different concentrations for 1 hour prior to treatment with 6-OHDA ([…]) for a further 24 hours.
Human SH-SY5Y neuroblastoma cells (ATCC® CRL-2266™) were plated at 20 000 cells per well in 96-well microplates, and left to adhere overnight to the well surface, in cell culture media composed of 50% advanced minimum essential medium (MEM), 50% Ham's F12 medium, 1% L-glutamine, that was supplemented with 2% fetal bovine serum (FBS). All media components were obtained from Thermo Fisher Scientific (Gibco™).
Each well's media was then replaced with 100 μL per well of serum free media, containing ascending concentrations of the novel compounds that ranged from 0–300 μM. Cells were pre-incubated with the compounds for 1 hour at 37 °C, 5% CO2, before exposure to 50 μM 6-OHDA (apart from the wells containing non-toxin treated control cells) for a further 24 hours. Just before application to cells, a 10 mM 6-OHDA hydrochloride (Sigma-Aldrich) stock concentration was prepared, by dissolving the powder in 1 mL distilled water containing 0.1% ascorbic acid (Sigma-Aldrich); the solution was protected against light and kept on ice until use.
After a further 24 hours incubation period at 37 °C in a 5% CO2 environment, cell viability was measured using the tetrazolium dye, 3-(4,5-dimethylthiazol-2-yl)-2,5-diphenyltetrazolium bromide (MTT). For this colorimetric assay, 11 μL of MTT (5 mg mL^−1) was added to the 100 μL media per well, and then incubated for 3 hours at 37 °C, 5%, CO2. For lysing the cells, an equal volume of solubilizing solution (dimethyl sulfoxide (DMSO)) was added to each well and mixed thoroughly. Absorption was measured at a wavelength of 570 nm by using a scanning multiwell spectrophotometer (Sunrise Tecan, Durham, NC, USA). Cell viability was calculated as a percentage compared to the untreated (not receiving toxin or drug compound) control wells. Data is expressed as the means ± the SEM of three independent experiments. Statistical analyses of the MTT-derived cell viability data were performed using Prism software (v3, GraphPad, San Diego, CA, USA) and using a one-way ANOVA, followed by a Dunnett's post-hoc test for multiple comparisons. Results were considered significant at P < 0.05.

[8] = Protonation constants (log K) of ligands by UV-visible spectrophotometric titration vs. pH; assay type: physicochemical; settings: for log K LH2 / log K LH: Solvent H2O; for log K LH: I = 0.1 M (NaClO4), T = 25.0 °C; for pKa: value used as input for BBB score (Tables S1–S6)
Protocol: For ligand 10a, protonation constants of the ligand were studied in both media while complexation studies were carried out only in the mixed solvent for solubility reasons.

[9] = Distribution coefficients (log D7.4), Shake Flask method, n-octanol / HEPES buffer pH 7.4; assay type: physicochemical; settings: free ligand, n-octanol / HEPES buffered aqueous phase pH 7.4
Protocol: The method is based on the principle that the solute's distribution is determined as a ratio of concentrations of the test compound in a solution mixture, consisting of two immiscible phases, namely n-octanol and an aqueous buffer (HEPES buffer, pH 7.4).

[10] = Fe^3+ complexation: stability constants (log β) and sequestering ability (pL0.5) by spectrophotometric titration; settings: solvent H2O; for log β FeL / log β FeL2 / log β FeL3: Fe^3+ complex; for pL0.5: towards Fe^3+ at pH 7.4, [Fe^3+] = 10^−9 M
[11] = Solubility as observed during the studies (in words); assay type: physicochemical; settings: for solubility in the aqueous phase (in words): HEPES-buffered aqueous phase pH 7.4 of log D7.4 determination, ligands and their Fe^3+ complexes
[12] = value used as input for BBB score (Tables S7–S9), previously studied ligands ref 28

SMILES: CC(=O)N(O)CCCCCNC(=O)CCC(=O)N(O)CCCCCNC(=O)CCC(=O)N(O)CCCCCN [DFO, desferrioxamine, reference compound]
log β ([1]; iron affinity ref 57a,b): 30.5

SMILES: Cc1c(O)c(=O)ccn1C [DFP 1, deferiprone, reference compound]
time to complete reaction with ABTS radical cation [2]: ≤ 1 min | Antioxidant activity as TEAC ([2]; t = 1 min): ∼0.7 mM | Antioxidant activity as TEAC ([2]; t = 3 min): ∼0.7 mM | Antioxidant activity as TEAC ([2]; t = 6 min): ∼0.7 mM | EC50 ([3]; methanol, steady-state): 8 µg/mL | EC50 ([3]; read-out: EC50): 58 µM | % 6-OHDA Rescue (at 100 µM) [4]: 117%

SMILES: O=c1cccc(CO)n1O [Ligand 2]
log D7.4 of Fe^3+ complex ([5]; Fe^3+ complex of the ligand ref 28): −0.18 | log D7.4 ([5]; free ligand ref 28): −1.71 | pKa [6, 12]: 6.02 | % 6-OHDA Rescue (at 100 µM) [4]: 93%

SMILES: O=C(O)c1cccn(O)c1=O [Ligand 3]
pKa [6, 12]: 3.7 | % 6-OHDA Rescue (at 100 µM) [4]: 84%

SMILES: NCCc1cc(O)c(O)cc1O [Ligand 6-OHDA, 6-hydroxydopamine, reference compound]
decrease of cell viability ([7]; toxin only, 24 hours): approximately 50%

log K LH2 [8]: 0.04(2) | log K LH [8]: 4.58(4) | pKa [8]: 4.58 | logD [9]: -1.73 | log β FeL [10]: 10.38(6) | log β FeL2 [10]: 18.1(4) | log β FeL3 [10]: 23.85(1) | pL0.5 [10]: 4.36
SMILES: Cc1ncc(=O)n(O)c1C [Ligand 6a, 1-Hydroxy-5,6-dimethylpyrazin-2(1H)-one]
Antioxidant activity as TEAC ([2]; t = 1 min): 0.08 mM | Antioxidant activity as TEAC ([2]; t = 3 min): 0.16 mM | Antioxidant activity as TEAC ([2]; t = 6 min): 0.22 mM | neuroprotection against 6-OHDA (in words) [7]: fully rescued | % 6-OHDA Rescue (at 100 µM) [7]: 100% | cell viability restored [7]: ≥ 89% | log β3 ([1]; 1 : 3 Fe^3+ complex, different experimental conditions ref 35): 20.2 | pKa ([6]; published previously ref 35): 4.7

pKa [8]: 5.53 | solubility in the aqueous phase (in words) [11]: low solubilities | solubility in water (in words) [11]: very low solubility in water
SMILES: Cc1nc(Cc2ccccc2)c(=O)n(O)c1C [Ligand 6c, 1-Hydroxy-3-benzyl-5,6-dimethylpyrazin-2(1H)-one]
Antioxidant activity as TEAC ([2]; t = 1 min): 0.21 mM | Antioxidant activity as TEAC ([2]; t = 3 min): 0.31 mM | Antioxidant activity as TEAC ([2]; t = 6 min): 0.40 mM | neuroprotection against 6-OHDA (in words) [7]: partially prevented | % 6-OHDA Rescue (at 100 µM) [7]: 89% | cell viability restored [7]: ≥ 89%

pKa [8]: 5.96 | solubility in the aqueous phase (in words) [11]: low solubilities | solubility in water (in words) [11]: very low solubility in water
SMILES: Cc1nc(Cc2ccc(O)cc2)c(=O)n(O)c1C [Ligand 6d, 1-Hydroxy-3-(4-hydroxybenzyl)-5,6-dimethylpyrazin-2(1H)-one]
Antioxidant activity as TEAC ([2]; t = 1 min): 0.41 mM | Antioxidant activity as TEAC ([2]; t = 3 min): 0.55 mM | Antioxidant activity as TEAC ([2]; t = 6 min): 0.64 mM | % 6-OHDA Rescue (at 100 µM) [7]: 64%

log K LH2 [8]: ∼−0.6 | log K LH [8]: 3.18(1) | pKa [8]: 3.18 | logD [9]: -1.2 | solubility in water (in words) [11]: very low solubility in water
SMILES: O=c1cncc(-c2ccccc2)n1O [Ligand 10a, 1-Hydroxy-6-phenylpyrazin-2(1H)-one]
time to complete reaction with ABTS radical cation [2]: ~3 min | Antioxidant activity as TEAC ([2]; t = 1 min): 0.66 mM | Antioxidant activity as TEAC ([2]; t = 3 min): 0.69 mM | Antioxidant activity as TEAC ([2]; t = 6 min): 0.70 mM | neuroprotection against 6-OHDA (in words) [7]: only marginal protection | % 6-OHDA Rescue (at 100 µM) [7]: 63%

solubility in water (in words) [11]: low water solubilities | melting point: 176.8 to 179 °C
SMILES: COc1ccc(-c2cncc(=O)n2O)cc1 [Ligand 10b, 1-Hydroxy-6-(4-methoxyphenyl)-pyrazin-2(1H)-one]

solubility in water (in words) [11]: low water solubilities | melting point: 210.6 to 212.5 °C
SMILES: O=c1cncc(-c2ccc(F)cc2)n1O [Ligand 10c, 1-Hydroxy-6-(4-fluorophenyl)-pyrazin-2(1H)-one]

pKa [8]: 4
SMILES: O=c1cncc(-c2ccc(O)cc2)n1O [Ligand 10d, 1-Hydroxy-6-(4-hydroxyphenyl)-pyrazin-2(1H)-one]
neuroprotection against 6-OHDA (in words) [7]: partially prevented | % 6-OHDA Rescue (at 100 µM) [7]: 76%

log K LH2 [8]: 0.2(2) | log K LH [8]: 3.98(5) | pKa [8]: 3.98 | logD [9]: -0.4 | log β FeL [10]: 7.83(1) | log β FeL2 [10]: 14.28(2) | log β FeL3 [10]: 20.19(4) | pL0.5 [10]: 3.13
SMILES: Cc1cncc(=O)n1O [Ligand 11a, 1-Hydroxy-6-methylpyrazin-2(1H)-one]
Antioxidant activity as TEAC ([2]; t = 1 min): 0.02 mM | Antioxidant activity as TEAC ([2]; t = 3 min): 0.03 mM | Antioxidant activity as TEAC ([2]; t = 6 min): 0.05 mM | % 6-OHDA Rescue (at 100 µM) [7]: 60%

SMILES: O=c1cnccn1O [unsubstituted 1-hydroxypyrazin-2(1H)-one, 1-hydroxypyrazin-2(1H)-one]
pKa ([6]; published previously ref 35): 4.4
